“Also recorded” adds a separate entry of the source. Like-named read-outs stand apart in the source and are kept apart here.
Assays:
NF-κB = experiment: TPA-induced NF-κB activation by EMSA in Jurkat cells; conditions: for IC90: read-out: NF-κB inhibition IC90, TPA 25 ng/ml; for TPA-induced NF-κB activation at 500 μM: 500 μM for 1 hour then TPA 25 ng/ml; for concentrations found to inhibit NF-κB activation: FIG. 10
Protocol: (§1) Three hours after treatment, whole cell extracts were prepared and analyzed by EMSA (Electrophoretic Mobility Shift Assay) as described in Amici et al., 1995, supra. After a 20 minute incubation at room temperature, HSF-HSE or NF-κB-DNA-complexes were analyzed by nondenaturing 4% polyacrylamide gel electrophoresis and autoradiography. The amount of shifted HSE probe and NF-κB probe, an indicator of HSF DNA-binding activity and NF-κB activity, respectively, were quantitated by Molecular Dynamics Phospholmager (MDP) analysis.
(§2) At different times or three hours after treatment, whole cell extracts were prepared and analyzed by EMSA (Electrophoretic Mobility Shift Assay) as described in Amici et al., 1995, supra. Briefly, extracts (10 μg/sample) were mixed with 0.1 ng of a ^32P-NF-κB element or ^32P—HSE oligonucleotide and 0.5 μg of poly(dI-dC) (Pharmacia Biotech Inc.) in 25 μl of binding buffer (10 nM Tris-Cl, pH 7.8, 50 mM NaCl, 1 mM EDTA, 0.5 mM dithiothreitol, 5% glycerol). After a 20 minute incubation at room temperature, HSF-HSE or NF-κB-DNA-complexes were analyzed by nondenaturing 4% polyacrylamide gel electrophoresis and autoradiography. The amount of shifted HSE probe and NF-κB probe, an indicator of HSF DNA-binding activity and NF-κB activity, respectively, were quantitated by Molecular Dynamics Phospholmager (MDP) analysis.
(§3) Jurkat cells were incubated with the compounds listed in Table 1 (infra) or reference diluent at different concentrations for 1 hour and then were stimulated with TPA (25 ng/ml). After 1 hour at 37° C. the whole-cell extracts were prepared and subjected to EMSA to determine NF-κB and HSF activation. The levels of binding-DNA activity of NF-κB were quantified with Molecular Dynamics Phosphorlmager analysis.

[1] = tested on: vesicular stomatitis virus (VSV), Indiana serotype (Orsay); format: cell-based; conditions: MA104 cells
[2] = tested on: heat shock transcription factor (HSF); experiment: HSF activation by EMSA in K562 cells; conditions: 500 μM
Protocol: K562 human erythroleukemia cells, monolayers of monkey kidney cells (MA104 cells), and Jurkat cells were grown in RPMI 1640 medium supplemented with 10% fetal calf serum and antibiotics at 37° C. in a 5% CO2 humidified atmosphere (Amici et al., 1995, Cancer Research 55: 14452-4457).
At different times following 2-cyclopenten-1-one treatment or 3 hours following heat shock, whole cell extracts were prepared and analyzed by EMSA (Electrophoretic Mobility Shift Assay) as described in Amici et al., 1995, supra.

[3] = tested on: heat shock transcription factor (HSF); experiment: HSF activation by EMSA in Jurkat cells; conditions: for HSF activation at 500 μM: 500 μM for 1 hour then TPA; for concentrations found to activate HSF: TPA 25 ng/ml, FIG. 10
Protocol: as §1, §2, §3

HSP70 [4] = experiment: HSP70 and total protein synthesis in K562 cells ([35S]-methionine); conditions: 500 μM
Protocol: K562 cells treated with 500 μM 2 cyclopenten-1-one for different times were pulse-labeled with L-[^35S]-methionine (10 μCi/10^6 cells) for 1 hour. Cells were washed with phosphate buffered saline (PBS) and lysed with 400 μl of lysis buffer (20 nM Tris-Ci, pH 7.4, 0.1 M NaCl, 5 mM MgCl2, 1% Nonidet P-40, 0.5% SDS) containing protease inhibitors. After cell lysis, the radioactivity incorporated into trichloroacetic acid-insoluble material was determined, and an aliquot of samples containing the same amount of radioactivity were analyzed by 10% SDS-PAGE and autoradiography. HSP70 synthesis was determined by densitometric analysis of the autoradiograms. Total protein synthesis was determined as [^35S]-methionine incorporation into TCA-insoluble material (Amici et al., 1993, Exp. Cell. Res. 207. 230-234).

VSV proteins = format: cell-based, vesicular stomatitis virus; conditions: VSV-infected MA104 cells, [35S]-methionine, SDS-PAGE
HSP70 gene transcription = experiment: Transcription run-on assay in isolated K562 nuclei
Protocol: In vitro run-on transcription reactions were performed in isolated K562 nuclei as described in Banerji et al, 1984, Mol. Cell. […] The vector plasmid (pBluescript) was used as a non-specific hybridization control. Following hybridization, the filters were visualized by autoradiography and the radioactivity was quantitated by MDP analysis. The values are expressed as arbitrary units obtained by comparing transcription rates to control levels.

[5] = tested on: HSP90 and HSP70 gene transcription; experiment: Transcription run-on assay in isolated Jurkat nuclei; format: cell-based, human
[6] = tested on: Influenza A virus A/PR8/34 (H1N1) (PR8 virus); experiment: PR8 influenza virus replication in MDCK cells (HAU and CPE50%); format: cell-based
HSP70 [7] = experiment: Cellular and heat shock protein synthesis in MDCK cells; format: cell-based, canine
PR8 influenza virus = experiment: Survival and body weight of PR8-infected Balb/c mice; format: in vivo
PR8 virus = experiment: Virus titer in the lungs of PR8-infected mice; format: in vivo, Balb/c mice; conditions: 10 μg/mouse/day i.p., four days after infection with 1 HAU PR8 virus/mouse
[8] = tested on: PR8 influenza virus proteins; format: cell-based, Influenza A virus
[9] = 10 μg/day/mouse i.p., for 4 days

## CC(=O)NC(Cc1ccccc1)C(=O)Oc1ccc2ccccc2c1 (racemic) [APNE, N-acethyl-DL-phenylalanine-β-napthylester]
NF-κB
  IC90: 300 µM

## O=C1C=CCC1 [2-cyclopenten-1-one]
[1]; 24 h p.i., lower end of 100-500 μM
  inhibition of production of VSV infectious particles with respect to control: 10 times
[1]; 24 h p.i., upper end of 100-500 μM
  inhibition of production of VSV infectious particles with respect to control: more than 1000 times
[2]
  less activated HSF at 24 hours than at 9 hours after treatment: Approximately 50%
  time after treatment at which activation of HSF was detected: 1.5 h
  time after treatment of maximum levels of HSF activation: 9 h
[3]; EMSA
  HSF activation at 500 μM: detected
[3]; same samples as NF-κB EMSA
  HSF activation at 125 μM: detectable
HSP70 [4]
  HSP70 protein synthesis versus cellular protein synthesis: selectively stimulate HSP70 protein synthesis
VSV proteins
  effect on VSV protein synthesis: selective block of the viral protein synthesis
HSP70 gene transcription
  HSP70 mRNA transcription by 24 hours after treatment: decreased
  time after treatment at which HSP70 mRNA transcription was detected: 1.5 h
  time after treatment at which HSP70 transcription rates were maximal: 6 to 9 h
  transcription of other stress proteins (HSC70, GRP78/BiP, heme-oxygenase): not affected
NF-κB
  TPA-induced NF-κB activation at 500 μM: not detectable; also recorded: inhibits TPA-induced NF-κB activation
NF-κB; TPA 25 ng/ml
  lowest concentration inhibiting NF-κB activation by TPA: 125 µM

## O=c1oc(Cl)c(Cl)c2ccccc12 [DCIC, 3,4-dichloro-iso-coumarine]
[1]; lower end of 5-45 μM
  inhibition of production of VSV infectious particles with respect to control: 50%
[1]; upper end of 5-45 μM
  inhibition of production of VSV infectious particles with respect to control: more than 98%
[5]
  HSP90 and HSP70 mRNA transcription by 24 hours after treatment: decreased
  selectivity of stress protein induction (HSP90, Grp78, HSC70, HSP70): selectively induces the expression of HSP90 and HSP70
  time after treatment at which HSP90 and HSP70 mRNA transcription were detected: 1 h
  time after treatment at which HSP90 and HSP70 transcription rates were maximal: about 3 hours
[3]; 5 μM, EMSA
  duration of HSF activation following initiation of treatment: 12 h
  time after treatment at which activation of HSF was detected: 1 h
  time after treatment of maximum levels of HSF activation: 3 h
[3]; EMSA
  concentrations found to activate HSF: 5 to 10 µM
VSV proteins
  effect on VSV protein synthesis: selective block of the viral protein synthesis
NF-κB; TPA 25 ng/ml
  concentrations found to inhibit NF-κB activation: 5 to 10 µM
NF-κB
  IC90: 5.5 µM

## CCCCC[C@H](O)/C=C/[C@H]1C=CC(=O)[C@@H]1CCCCCCC(=O)O [PGA1, Prostaglandin A1]
[6]
  effect on PR8 virus replication, comparison of prostaglandins: only modestly and transiently inhibited
[6]; MDCK cells, 10 μg/ml, data not shown
  decrease of PR8 virus yield up to 48 hours p.i.: more than 90 % of control

## O=C1CCCC1 [cyclopentanone, reference compound]
[3]; EMSA
  HSF activation at 500 μM: not detected
NF-κB
  TPA-induced NF-κB activation at 500 μM: do not inhibit NF-κB activation

## C1=CCCC1 [cyclopentene, reference compound]
[3]; EMSA
  HSF activation at 500 μM: not detected
NF-κB
  TPA-induced NF-κB activation at 500 μM: do not inhibit NF-κB activation

## CCCCCC(O)C/C=C1/C(=O)C=CC1C/C=C\CCCC(=O)O (stereo not drawn) [Δ^12-PGJ2, 9-deoxy-Δ^9,Δ^12-13,14-dihydro-PGD2]
HSP70 [7]
  time after treatment at which HSP70 synthesis was detectable: 3 h
  time for which HSP70 synthesis continued to be detectable: at least 12 hours
HSP70 [7]; MDCK cells, 6 μg/ml
  synthesis of HSP90: enhanced
HSP70 [7]; MDCK cells, 6 μg/ml, SDS-PAGE and immunoblot
  synthesis of HSC70 and HSP70: markedly induced
HSP70 [7]; uninfected MDCK cells, 6 μg/ml, 24 hours
  protein synthesis in uninfected cells: modest reduction
PR8 influenza virus; 1 μg/day/mouse i.p. for 7 days, FIG. 15A
  mouse survival: no effect on mouse survival
PR8 influenza virus; 5 μg/day/mouse i.p. daily for 7 days, FIG. 15B
  survival of the animals: 60%
PR8 influenza virus; 5 μg/day/mouse i.p. for 7 days, FIG. 15A
  mice survival on day 25 p.i.: 50%
PR8 influenza virus; 5 μg/day/mouse i.p. on days 0, 2 and 4, FIG. 15B
  survival of the animals: approximately 30%
PR8 influenza virus; PR8-infected mice, 7-day treatment, 5 μg/day/mouse
  body weight at 7 days p.i.: 18.25 ± 0.68 g
PR8 virus
  virus titer in the lungs: 0.07±0.03×10^4 CPE50% units/gr of lung tissue
[8]
  PR8 protein synthesis: dramatic reduction
  viral proteins by immunoblot analysis at 24 hours p.i.: not detectable
MDCK cells
  uptake of precursors and DNA and RNA synthesis: did not inhibit either the uptake of precursors or DNA and RNA synthesis
  virus-induced inhibition of cellular RNA synthesis: prevented
[9]
  signs of toxicity: did not show any sign of toxicity
[9]; data not shown
  loss of body weight in infected animals: reduced
[6]
  PR8 virus yield at concentrations higher than 6 μg/ml: not detectable
  PR8 virus yield in HAU: 0 HAU
  effect on PR8 virus replication, comparison of prostaglandins: most effective cyclopentenone prostaglandin
  infectious virus titer: 3.2+0.6×10^1 CPE5O % units/ml
  inhibition of PR8 virus production: greater than 95 % of control
  reduction of infectious virus titers: more than 99 % of control
[6]; MDCK cells, 6 μg/ml
  period for which antiviral activity is sustained: at least 72 hours p.i.
[6]; MDCK cells, single treatment with 6 μg/ml
  inhibition of PR8 virus replication up to 72 h p.i.: more than 95%

## Nα-tosyl-lysine-chloromethylketone [TLCK]
[3]; EMSA
  concentrations found to activate HSF: 30 to 75 µM
NF-κB; TPA 25 ng/ml
  concentrations found to inhibit NF-κB activation: 30 to 75 µM
NF-κB
  IC90: 135 µM

## tosyl-L-phenylalanine-chloromethylketone [TPCK]
[3]; EMSA
  concentrations found to activate HSF: 12.5 to 25 µM
NF-κB; TPA 25 ng/ml
  concentrations found to inhibit NF-κB activation: 12.5 to 25 µM
NF-κB
  IC90: 12 µM
